{"source": "patent US9561288B2", "about": "“Combinations and modes of administration of therapeutic agents and combination therapy” (Abraxis BioScience, LLC, priority 2005, dated 2017)", "key": {"VEGF-A protein": {"test_system": "VEGF-A protein", "test": "VEGF-A protein in tumor extracts by ELISA", "protocol": "All drugs and control saline were administered i.v. in a volume of 100 μl daily for 5 days. Mice were sacrificed, tumors were harvested and tumor cellular extracts were prepared. VEGF-A protein levels in tumor extracts were determined by ELISA."}, "[1]": {"test_system": "MDA-MB-231 human breast cancer xenografts", "test": "MDA-MB-231 xenografts: tumor growth, necrosis, hypoxia (Example 24)", "details": "i.v. qdx5; Taxol® 10, Abraxane® 15, Doxorubicin 10 mg/kg/day"}, "[2]": {"test_system": "NCI-60 human tumor cell line panel", "test": "NCI-60 human tumor cell line panel", "assay_type": "cell-based", "details": "NCI 60 panel", "description": "(§1) Its cytotoxicity was also assessed against the NCI-60 human tumor cell line panel."}, "MCF7-S breast carcinoma": {"test_system": "MCF7-S breast carcinoma", "test": "Cytotoxic activity in MCF7-S", "assay_type": "cell-based, human"}, "[3]": {"test_system": "MCF7-R (pgp+) multidrug resistant variant", "description": "as §1"}, "[4]": {"test_system": "MDA-MB-231-Luc+ lymphatic and pulmonary metastases", "test": "Lymphatic and pulmonary metastasis of well-established 231-Luc+ tumors (Example 32)", "assay_type": "in vivo, nu/nu mice", "details": "Abraxane® 30 mg/kg qd×5; Avastin® 4 mg/kg q2×wkly; tumors ~460 mm^3", "description": "MDA-MB-231 or 231-Luc^+ cells were implanted into the MFP of 4 to 6 week old female nu/nu mice (Harlan Sprague-Delaney, Indianapolis, Ind.) by standard methods. Briefly, mice were anesthetized and 100 μl of cell suspension containing 4×10^6 cells and 50% Matrigel (Sigma, Mo.) were injected into the MFP. Every 2-3 days, perpendicular tumor diameters were measured by digital caliper and used to calculate tumor volume according to the formula: Volume=Dd^2π/6, where D=larger diameter and d=smaller diameter. […] Animal care was in accordance with institutional guidelines.\nLuciferase-expressing orthotopic MDA-MB-231 (231-Luc+) xenografts were grown to well-established tumors (˜460 mm^3) and randomized to four groups of N=5, 6 or 7.\nMetastases of MDA-MB-231-Luc+ tumor cells were identified by measuring luciferase activity in tissue extracts from lymph nodes and lungs, as described in Example 31 above. […] This value was chosen because it represented the minimal signal which could be reproducibly detected above background in tissues in which metastases were independently confirmed by immunohistochemical detection of human cells. The net results were expressed as relative light units (RLU) normalized per mg of total lysate protein, and are presented in FIG. 17A (lymphatic metastasis) and FIG. 17B (pulmonary metastasis)."}, "[5]": {"test_system": "lymph node metastasis of MDA-MB-435-Luc+", "test": "MDA-MB-435-Luc+ lymph node metastasis", "assay_type": "in vivo, ICR SCID mice", "details": "ABX 10 mg/kg two cycles; Avastin® 4 mg/kg", "description": "Two cycles of Abraxane® treatment were administered, each for 5 consecutive days with one week of rest between cycles. […] The control group received PBS injected i.v. or i.p. […] Lymph nodes and lungs were excised, washed in PBS, and homogenized in 0.35 ml of cold CCLR buffer (Promega, Madison, Wis.) containing a protease inhibitor cocktail and PMSF (Sigma, Mo.). Cell debris was removed by centrifugation. Protein concentrations of cleared lysates were determined by Bradford assay (Bio-Rad, Hercules, Calif.). […] CCLR buffer without tissue homogenates and lymph nodes or lungs of non-tumor bearing mice were assayed for background signal and subtracted from the results. The net results were expressed as relative light units (“RLU”) normalized per mg of total lysate protein. […] This value was chosen because it was the minimal signal reproducibly detected above background in metastatic tissues, independently confirmed by immunohistochemical detection (data not shown). Differences in lymph node and lung metastases were assessed for statistical significance by Fisher's exact test using GraphPad InStat (GraphPad Inc., San Diego, Calif.) or SPSS 14.0 (SPSS, Inc., Chicago, Ill.)."}, "[6]": {"test_system": "Luciferase-expressing MDA-MB-231 human breast cancer xenografts", "test": "Luciferase-expressing MDA-MB-231 xenografts, tumor growth (Example 26)", "assay_type": "in vivo, nude (nu/nu) mice", "protocol": "Abraxane®, either alone or in combination, was administered at 10 mg/kg/day daily for 5 days in two cycles separated by 1 week. […] Mice were monitored for tumor growth and drug toxicity. Mice were sacrificed when the mean tumor volume in the saline-treated control group reached 2000 mm^3.\nTumor growth inhibition (TGI) was calculated by comparing mean tumor volume of test groups to that of the control group at the last measurement of the control group."}, "[7]": {"test_system": "pulmonary metastasis of MDA-MB-435-Luc+", "test": "MDA-MB-435-Luc+ pulmonary metastasis", "assay_type": "in vivo, ICR SCID mice", "details": "ABX 10 mg/kg two cycles; Avastin® 4 mg/kg", "protocol": "Tumor metastasis was determined by measuring luciferase activity in tissue extracts derived from 10 axillary lymph nodes (“LN”) and both lobes of the lungs. Lymph nodes and lungs were excised, washed in PBS, and homogenized in 0.35 ml of cold CCLR buffer (Promega, Madison, Wis.) containing a protease inhibitor cocktail and PMSF (Sigma, Mo.). Cell debris was removed by centrifugation. Protein concentrations of cleared lysates were determined by Bradford assay (Bio-Rad, Hercules, Calif.). Fifty μl of Luciferase Assay Reagent (Promega, Madison, Wis.) was mixed with 10 μl of cleared lysate and a 10 second average of luminescence was detected using a single tube luminometer (Berthold, Germany). […] The net results were expressed as relative light units (“RLU”) normalized per mg of total lysate protein. […] Differences in lymph node and lung metastases were assessed for statistical significance by Fisher's exact test using GraphPad InStat (GraphPad Inc., San Diego, Calif.) or SPSS 14.0 (SPSS, Inc., Chicago, Ill.)."}, "Abraxane®-treated cells [8]": {"test_system": "Abraxane®-treated cells", "test": "In vitro cellular cytotoxicity assay with VEGF-A or Avastin®", "assay_type": "cell-based", "details": "Abraxane® 1 to 24 nM", "description": "Cells were treated with Abraxane® in a range of concentrations (1 to 24 nM)."}, "[9]": {"test_system": "MDA-MB-231-Luc+ human breast cancer xenografts", "test": "MDA-MB-231-Luc+ xenografts, one or two cycles of Abraxane® with Avastin® (Example 29)", "assay_type": "in vivo, nude (nu/nu) mice", "details": "for % Complete Regression: day 65", "description": "One or two cycles of Abraxane® were administered. In two-cycle Abraxane® treatment, a second cycle of Abraxane® (10 mg/kg, i.v. qd×5) was administered one week after conclusion of the first cycle."}, "MDA-MB-435-Luc+ tumors": {"test_system": "MDA-MB-435-Luc+ tumors", "test": "MDA-MB-435-Luc+ tumor growth (Example 31)", "assay_type": "in vivo, ICR SCID mice", "description": "MDA-MB-435-Luc+ (“435-Luc+”) cells were implanted subcutaneously into the mammary fat pad of 4 to 6 week old female ICR SCID mice (Taconic, Hudson, N.Y.). Every 2-3 days, perpendicular tumor diameters were measured by digital caliper and used to calculate tumor volume according to the formula: volume=Dd^2π/6, where D=larger diameter and d=smaller diameter. […] Animal care was in accordance with institutional guidelines.\nTwo cycles of Abraxane® treatment were administered, each for 5 consecutive days with one week of rest between cycles. […] To allow maximal development of metastatic foci, mice were sacrificed when the average tumor volume in the control group reached 2000 mm^3."}, "Abraxane®-treated cells [10]": {"test_system": "Abraxane®-treated cells", "test": "In vitro clonogenic assay", "assay_type": "cell-based", "description": "Cells were treated with saline control, Abraxane® alone, VEGF-A alone, Avastin® alone, Abraxane®+VEGF-A or Abraxane®+Avastin®."}, "[11]": {"test_system": "MDA-MB-435 human breast tumor xenografts", "test": "MDA-MB-435 human tumor xenografts treated with HKP, Abraxane® or both", "assay_type": "in vivo, mice", "details": "nineteen weeks; HKP 250 ug i.v. weekly x16; Abraxane® 10 mg/kg/day i.v. x5 days", "description": "Methods: MDA-MB-435 human tumor xenografts were established at an average tumor volume of 100 mm^3, mice were randomized into groups of 12-13 animals and treated with HKP, Abraxane®, or HKP and Abraxane®. HKP was delivered i.v. (250 ug), once a week, for 16 weeks. Abraxane® was administered i.v., daily for 5 days at 10 mg/kg/day only for the first week of treatment. The Abraxane® dose used was substantially below its MTD (30 mg/kg/day, qd×5) to prevent the tumor from complete regression so effect of HKP could be noted."}, "[12]": {"details": "Experiment No. 1: one cycle, Avastin® 2 mg/kg"}, "[13]": {"details": "Experiment No. 2: two cycles, Avastin® 4 mg/kg"}}, "data": [{"molecule": "COc1cccc2c1C(=O)c1c(O)c3c(c(O)c1C2=O)C[C@@](O)(C(=O)CO)C[C@@H]3O[C@H]1C[C@H](N)[C@H](O)[C@H](C)O1", "note": "[Doxorubicin]", "values": [{"measurement": "VEGF-A", "setting": "VEGF-A protein; tumor extracts, i.v. qdx5", "result": "754 ± 49", "unit": "pg/mg protein"}, {"measurement": "increase in VEGF-A protein levels", "setting": "VEGF-A protein; vs saline control", "result": 124, "unit": "%"}, {"measurement": "% TGI", "setting": "[1]", "result": 45, "unit": "%"}, {"measurement": "Mean Tumor Volume", "setting": "[1]", "result": "287 ± 56", "unit": "mm^3"}]}, {"molecule": "COc1cc2c(c(OC)c1OC)-c1ccc(SC)c(=O)cc1[C@@H](NC(=O)CCNC(=O)N[C@H]1CCc3cc(OC)c(OC)c(OC)c3-c3ccc(SC)c(=O)cc31)CC2", "note": "[IDN5404]", "values": [{"measurement": "IC50", "setting": "[2]", "result": "< 10", "unit": "nM"}, {"measurement": "IC50", "setting": "MCF7-S breast carcinoma", "result": "1.7 ± 0.1", "unit": "nM"}, {"measurement": "fold resistance MCF7-R vs MCF7-S", "setting": "[3]", "result": "> 10", "unit": "fold"}, {"measurement": "IC50", "setting": "[3]; MCF7-R", "result": "40 ± 3.8", "unit": "nM"}]}, {"molecule": "Avastin®: anti-VEGF antibody bevacizumab", "values": [{"measurement": "lymphatic and pulmonary metastases", "setting": "[4]", "result": "failed to prevent metastasis"}, {"measurement": "Lymph node metastasis % Inhibition vs. Control", "setting": "[5]", "result": 100, "unit": "%"}, {"measurement": "% TGI", "setting": "[6]; Abraxane® 10 mg/kg/day two cycles, Avastin® 4 mg/kg", "result": 12.56, "unit": "%"}, {"measurement": "Mean Tumor Volume", "setting": "[6]; Abraxane® 10 mg/kg/day x5 days, two cycles, Avastin® 4 mg/kg twice a week for 6 weeks", "result": "2089 ± 251", "unit": "mm^3"}, {"measurement": "% Complete Regression", "setting": "[6]; day 65, Abraxane® two cycles, Avastin® 4 mg/kg", "result": 0, "unit": "%"}, {"measurement": "Pulmonary metastasis % Inhibition vs. Control", "setting": "[7]", "result": 50, "unit": "%"}, {"measurement": "effect of addition on in vitro cytotoxicity of Abraxane®", "setting": "Abraxane®-treated cells [8]", "result": "increased the in vitro cytotoxicity of Abraxane®"}, {"measurement": "Mean Tumor Volume", "setting": "[9]; Experiment No. 1: one cycle of Abraxane® 10 mg/kg, Avastin® 2 mg/kg", "result": "953 ± 127", "unit": "mm^3"}, {"measurement": "% TGI", "setting": "[9]; [12]", "result": 54.16, "unit": "%"}, {"measurement": "% Complete Regression", "setting": "[9]; [12]", "result": 0, "unit": "%"}, {"measurement": "% TGD", "setting": "[9]; Experiment No. 1: one cycle, Avastin® 2 mg/kg, time to 1000 mm^3 vs control", "result": 13, "unit": "%"}, {"measurement": "Mean Tumor Volume", "setting": "[9]; Experiment No. 2: two cycles of Abraxane® 10 mg/kg, Avastin® 4 mg/kg", "result": "2089 ± 251", "unit": "mm^3"}, {"measurement": "% TGD", "setting": "[9]; [13]", "result": 7, "unit": "%"}, {"measurement": "% TGI", "setting": "[9]; [13]", "result": 12.56, "unit": "%"}, {"measurement": "% Complete Regression", "setting": "[9]; [13]", "result": 0, "unit": "%"}, {"measurement": "% Complete Regressions", "setting": "MDA-MB-435-Luc+ tumors; 92 days", "result": 0, "unit": "%"}, {"measurement": "tumor volume", "setting": "MDA-MB-435-Luc+ tumors; ABX 10 mg/kg i.v. qd×5 two cycles, Avastin® 4 mg/kg i.p. twice a week", "result": 792, "unit": "mm^3"}, {"measurement": "% TGI", "setting": "MDA-MB-435-Luc+ tumors; ABX 10 mg/kg two cycles, Avastin® 4 mg/kg", "result": 60.79, "unit": "%"}, {"measurement": "number of colonies formed", "setting": "Abraxane®-treated cells [10]", "result": "slight reduction in the number of colonies formed"}]}, {"molecule": "CNGRC-GG-d(KLAKLAK)2 [HKP]", "values": [{"measurement": "tumor volume", "setting": "[11]", "result": "4,372 mm^3"}]}]}
